The structures appear in SMILES notation.

In ChEMBL document CHEMBL1128635, “Structure-activity studies of the natural product substance P antagonist win 64821” (Bioorg Med Chem Lett, 1995) one finds IC50 data, which are given here for 13 compounds.

The target in this assay is Substance-P receptor (Homo sapiens, UniProt P25103). Nature of the assay: Antagonistic activity against Tachykinin receptor 1. Format: functional.
Sequence of Substance-P receptor (P25103 whole entry): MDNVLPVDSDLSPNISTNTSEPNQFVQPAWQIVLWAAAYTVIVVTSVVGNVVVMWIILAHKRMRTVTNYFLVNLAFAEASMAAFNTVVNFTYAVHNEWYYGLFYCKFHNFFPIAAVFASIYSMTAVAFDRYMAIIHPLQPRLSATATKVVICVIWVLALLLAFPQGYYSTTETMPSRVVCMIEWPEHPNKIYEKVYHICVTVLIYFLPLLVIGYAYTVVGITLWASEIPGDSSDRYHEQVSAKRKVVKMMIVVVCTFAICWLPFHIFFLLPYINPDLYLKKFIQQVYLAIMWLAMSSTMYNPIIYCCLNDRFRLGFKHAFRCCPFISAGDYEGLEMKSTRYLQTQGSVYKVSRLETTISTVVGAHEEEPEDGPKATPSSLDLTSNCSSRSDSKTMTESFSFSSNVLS
What is called IC50 is the midpoint of a concentration-inhibition curve. Read a low IC50 as greater potency in that assay. Regarding `O=C1N[C@@H](Cc2ccccc2)C(=O)N2[C@H]3Nc4ccccc4[C@@]3(O)C[C@@H]12`, the IC50 is > 100 µM. The value for `Cc1cccc2c1C1(C34C[C@H]5C(=O)N[C@@H](Cc6ccccc6)C(=O)N5[C@H]3Nc3cccc(C)c34)C[C@H]3C(=O)N[C@@H](Cc4ccccc4)C(=O)N3[C@H]1N2` (stereo partly drawn) was 5.7 µM. Under `O=C1N[C@@H](Cc2ccccc2)C(=O)N2[C@H]1C[C@@]1(Cc3cc([N+](=O)[O-])ccc3O)c3ccccc3N[C@@H]21` stands 98 µM; under `COc1ccc(N)cc1C[C@]12C[C@H]3C(=O)N[C@@H](Cc4ccccc4)C(=O)N3[C@H]1Nc1ccccc12`, 26 µM; under `Cc1cccc2c1C1(C34C[C@H]5C(=O)N[C@@H](Cc6ccccc6)C(=O)N5[C@H]3Nc3ccccc34)C[C@H]3C(=O)N[C@@H](Cc4ccccc4)C(=O)N3[C@H]1N2` (stereo partly drawn), 0.44 µM. With `COc1ccc(N)cc1C[C@@]12C[C@H]3C(=O)N[C@@H](Cc4ccccc4)C(=O)N3[C@@H]1Nc1ccccc12`, the half-inhibitory concentration (IC50) was 38 µM. This IC50 lies about 86-fold higher than the previous one. Under `O=C1N[C@@H](Cc2ccccc2)C(=O)N2[C@H]1C[C@@]1(O)c3ccccc3N[C@@H]21` stands > 100 µM; under `O=C1N[C@@H](Cc2ccccc2)C(=O)N2[C@H]3Nc4ccccc4[C@@]3(Cc3cc([N+](=O)[O-])ccc3O)C[C@@H]12`, 48 µM. Under `COc1ccc([N+](=O)[O-])cc1C[C@@]12C[C@H]3C(=O)N[C@@H](Cc4ccccc4)C(=O)N3[C@@H]1Nc1ccccc12` stands 88 µM. Under `COc1ccc([N+](=O)[O-])cc1C[C@]12C[C@H]3C(=O)N[C@@H](Cc4ccccc4)C(=O)N3[C@H]1Nc1ccccc12` stands 54 µM. With `O=C1[C@@H]2C[C@]3(Cc4cc([N+](=O)[O-])ccc4O)c4ccccc4N[C@@H]3N2C(=O)[C@H](Cc2ccccc2)N1Cc1cc([N+](=O)[O-])ccc1O`, the half-inhibitory concentration (IC50) was > 100 µM. `O=C1N[C@@H](Cc2ccccc2)C(=O)N2[C@H]3Nc4ccccc4C3(C34C[C@H]5C(=O)N[C@@H](Cc6ccccc6)C(=O)N5[C@H]3Nc3ccccc34)C[C@@H]12` (stereo partly drawn) showed an IC50 of 0.24 µM. The value for `O=C1[C@@H]2C[C@@]3(Cc4cc([N+](=O)[O-])ccc4O)c4ccccc4N[C@H]3N2C(=O)[C@H](Cc2ccccc2)N1Cc1cc([N+](=O)[O-])ccc1O` was > 100 µM.
